What was measured:
[1] = system: Ldlr−/− mice; experiment: AMLN diet-induced fatty liver model: liver tissue section analysis; type: in vivo; details: 30 mg/kg/day, 8 weeks
Experimental: Hematoxylin-eosin staining: The extracted liver was fixed in 4% paraformaldehyde at 4° C., embedded in paraffin, sectioned using a paraffin microtome (Leica RM2235) with a section thickness of […], dewaxed, rehydrated, and stained with Hematoxylin-eosin staining kits ([…]. 6,765,001, 6,766,010, Thermo Scientific). The images were captured with an Olympus VS 120 glass microscope, and quantified using ImageJ software. Oil Red 0 staining: The liver was embedded in OCT embedding medium (Leica), sectioned to a thickness of 7 μm using a cryostat microtome (Leica CM1950), stained with Oil Red 0 (00625, Sigma). The images were captured with an Olympus VS 120 glass microscope, and quantified using ImageJ software. Sirius Red collagen staining: Liver paraffin sections were dewaxed, rehydrated, and stained with Sirius Red staining kit (ab150681, Abcam) according to the manufacturer's instructions. Immunofluorescence staining: The liver was embedded in OCT embedding medium (Leica) and sectioned to a thickness of 7 μm using a cryostat microtome (Leica CM1950). Cryostat sections were stained with anti-F4/80 rat monoclonal antibody (14-4801-85, Invitrogen, 1:100) and Alexa Fluor 488-conjugated goat anti-rat IgG secondary antibody (A-11006, Invitrogen, 1:500), and the nuclei were specifically stained with DAPI (Sigma) 30. After staining and sealing, the images were captured using a spinning disk confocal microscope (Nikon CSU-W1 SoRa), and quantified using ImageJ software. Polarized light imaging of cholesterol crystals: Cryostat sections were stained with F4/80 and DAPI. The images were captured using a spinning disk confocal microscope (Nikon CSU-W1 SoRa) equipped with a polarized light filter, and quantified using ImageJ software. Male C57BL/6J mice and male Ldlr^−/− mice (TOO1464, Jiangsu GemPharmatech Co., Ltd.) at 8 weeks of age were purchased, grouped, fed with different diets, and treated with different drugs. The mice were randomly divided into 4 groups with 8 to 9 mice in each group: One group consisted of C57BL/6J wild-type mice, which was the chow diet (CD) vehicle control group. The other three groups consisted of Ldlr^−/− knockout mice, including chow diet (CD) vehicle control group, AMLN diet (containing […], 22% fructose, and 2% cholesterol) vehicle control group, and AMLN diet combined with 25-hydroxylanosterol administration group (25-hydroxylano sterol was administered at a concentration of 30 mg/kg/day). The mice in four groups were intragastrically administered once a day, during which the changes in food intake and body weight of the mice in different treatment groups were counted. After 8 weeks, blood and liver samples were collected from the mice to analyze blood lipids, liver lipids, and liver damage phenotypes. Furthermore, we performed various staining or immunohistochemical procedures on liver tissue sections from the mice in each group to analyze the phenotypic changes in hepatic lipid accumulation and fatty liver. […] FIGS. 14 to 18 show the results of Oil Red O staining and quantification of liver sections of mice: 25-hydroxylanosterol reduced lipid droplets in the liver. FIGS. 19 to 23 show the results of Sirius Red staining and quantification of liver sections of mice: 25-hydroxylanosterol reduced fibrosis in the liver. FIGS. 24 to 29 show the results of F4/80 immunostaining and quantification of liver sections of mice as well as the results of imaging and quantification of polarized light imaging indicating cholesterol crystals: 25-hydroxylanosterol reduced the aggregation of Kupffer cells and formation of cholesterol crystals in the liver. In FIGS. 9 to 29, quantitative analysis was performed using ImageJ software, and data are represented as mean±standard deviation. P values were calculated using one-way ANOVA; * indicates P<0.05; ** indicates P<0.01; *** indicates P<0.001.

[2] = system: Ldlr−/− mice; experiment: Sudan IV staining of atherosclerotic plaques of the aortic tree; type: in vivo; details: AMLN diet, intragastrically once a day, 8 weeks, vs control group
Excerpt: After the administration experiment in mice, the aorta was isolated and fixed in 4% PFA. Perivascular adipose tissues were removed with ophthalmic forceps under a stereo microscope, stained with Sudan IV, and atherosclerotic plaques were washed in 70% ethanol. After staining, the aortic tree was imaged using a ZEISS Axio Zoom.V16 stereo microscope. Atherosclerotic lesions were quantified using ImageJ software.
AMLN-fed Ldlr^−/− mice also served as a common model for atherosclerosis, allowing simultaneous study of both fatty liver and atherosclerosis. Male Ldlr^−/− mice at 8 weeks of age were fed with AMLN diet and intragastrically administered once a day for a total of 8 weeks. After the mice were euthanized, the aorta was isolated and fixed in 4% paraformaldehyde. Perivascular adipose tissues were removed under a stereo microscope, stained with Sudan IV, and rinsed with 70% ethanol. The aortic tree was imaged using a stereo microscope (Axio Zoom.V16, ZEISS, Germany). Atherosclerotic plaques were quantified using ImageJ software.

C[C@H](CCCC(C)(C)O)[C@H]1CC[C@@]2(C)C3=C(CC[C@]12C)[C@@]1(C)CC[C@H](O)C(C)(C)[C@@H]1CC3 [compound 68, (1R,3aR,5aR,7S,9aS,11aR)-1-[(2R)-6-hydroxy-6-methylheptan-2-yl]-3a,6,6,9a,11a-pentamethyl-2,3,3a,4,5,5a,6,7,8,9,9a,10,11,11a-tetradecahydro-1H-cyclopenta[1,2-a]phenanthren-7-ol]
significantly reduced: crown-like structure formed by Kupffer cells (F4/80 immunostaining) [1] | fibrotic phenotype of collagen fiber formation in liver sections (Sirius Red) [1] | number of cholesterol crystals in liver sections (polarized light imaging) [1] | accumulation of lipid droplets of neutral lipids in the liver (Oil Red O staining) ([1]; vs control group) | macrovesicular lipid droplets and vesicular degenerated hepatocytes in the liver (HE staining) ([1]; vs control group) | NAFLD activity scores ([1]; HE staining of liver sections) | formation and quantity of atherosclerotic plaques (Sudan IV staining of aortic tree) [2]

— US20250154193A1, “STEROID COMPOUND, AND PREPARATION METHOD THEREFOR AND APPLICATION THEREOF” (CHOLESGEN (SHANGHAI) CO., LTD., priority 2022, published 2025)
